Four compounds from patent US10087212B2, “Crystal form of Abiraterone propionate and preparation method therefor” (CHONGQING PHARMACEUTICAL RESEARCH INSTITUTE CO., LTD, priority 2015, dated 2018) can be followed below.

This data set can be described thus: Stability test of crystal forms (40±2° C., RH 75±5%, 3 months). The following applies: for Crystal appearance / Melting point / Purity / Specific optical rotation: stability test. It is filed as physicochemical. On the procedure: The crystal forms obtained in Examples 2 to 4 were placed under an environment having a temperature of 40±2° C. and a humidity of RH 75±5% for 3 months. The melting point, specific optical rotation, purity and crystal appearance were measured on 0 day, 1-month, 2-month and 3-month, respectively.

[1] abbreviates: 3 months, conclusion from Table 2.

On to `CCC(=O)O[C@H]1CC[C@@]2(C)C(=CC[C@@H]3[C@@H]2CC[C@]2(C)C(c4cccnc4)=CC[C@@H]32)C1` [Example 3, (3β)-17-(3-pyridyl)-androstane-5,16-dien-3-ol propionate], for which, under “0 month”, the Crystal appearance entry was “No change”, the Melting point was 109.7~110.6 °C, the Purity is listed as 99.89 and the Specific optical rotation is on record as −44.34°. In addition, under “1 month”, the Crystal appearance entry is listed as “No change”, the Melting point was 109.4~110.4 °C, the Purity amounted to 99.87 and the Specific optical rotation is recorded as −44.21°. In addition, for the setting “2 months”, the Crystal appearance entry is reported as “No change”, the Melting point was 109.5~110.0 °C, the Purity came to 99.84 and the Specific optical rotation is on record as −44.05°. Where the note is “3 months”, the Crystal appearance entry is “No change”, the Melting point is 109.8~110.6 °C, the Purity is 99.82 and the Specific optical rotation was −43.99°.

Regarding `CCC(=O)O[C@H]1CC[C@@]2(C)C(=CC[C@@H]3[C@@H]2CC[C@]2(C)C(c4cccnc4)=CC[C@@H]32)C1` [Example 2, (3β)-17-(3-pyridyl)-androstane-5,16-dien-3-ol propionate], for the setting “0 month”, the Crystal appearance entry is “No change”, the Melting point is 109.5~110.4 °C, the Purity worked out at 99.88 and the Specific optical rotation was −44.32°. Besides, where the note is “1 month”, the Crystal appearance result is “No change”, the Melting point was 109.4~110.3 °C, the Purity is given as 99.86 and the Specific optical rotation is recorded as −44.06°. For the same compound, under “2 months”, the Crystal appearance result is listed as “No change”, the Melting point is 109.4~110.5 °C, the Purity was determined as 99.82 and the Specific optical rotation is given as −43.67°. For the same compound, where the note is “3 months”, the Crystal appearance entry is “No change”, the Melting point was 109.8~110.5 °C, the Purity is reported as 99.81 and the Specific optical rotation was −44.23°.

As for `CCC(=O)O[C@H]1CC[C@@]2(C)C(=CC[C@@H]3[C@@H]2CC[C@]2(C)C(c4cccnc4)=CC[C@@H]32)C1` [crystal form of Abiraterone propionate, (3β)-17-(3-pyridyl)-androstane-5,16-dien-3-ol propionate], under setting [1], the Crystal transformation entry is “no crystal transformation occurred” and the Stability entry is on record as “good stability”.

For the compound `CCC(=O)O[C@H]1CC[C@@]2(C)C(=CC[C@@H]3[C@@H]2CC[C@]2(C)C(c4cccnc4)=CC[C@@H]32)C1` [Example 4, (3β)-17-(3-pyridyl)-androstane-5,16-dien-3-ol propionate], under “0 month”, the Crystal appearance entry is recorded as “No change”, the Melting point is 109.6~110.5 °C, the Purity was determined as 99.86 and the Specific optical rotation is −44.46°. Further, where the note is “1 month”, the Crystal appearance entry is reported as “No change”, the Melting point is 109.4~110.4 °C, the Purity is 99.83 and the Specific optical rotation was −44.13°. For the setting “2 months”, the Crystal appearance entry is on record as “No change”, the Melting point is 109.5~110.7 °C, the Purity amounted to 99.81 and the Specific optical rotation is listed as −44.08°. For the setting “3 months”, the Crystal appearance result was “No change”, the Melting point is 109.7~110.6 °C, the Purity was 99.79 and the Specific optical rotation was −43.92°.
